Holding throughout (type): functional
What all share (conditions): read-out: ID50 (the source's name)

Test [1] is described as follows: Antiproliferative activity against Homo sapiens (human) HCV29T cells by SRB assay.
In test [2] the test system is T47D. Description: Antiproliferative activity against Homo sapiens (human) T47D cells by SRB assay. A general note: In SRB staining, fixed cells bind dye roughly in proportion to their protein.
The subject of test [3] is A549. In words: Antiproliferative activity against Homo sapiens (human) A549 cells by SRB assay.
The nature of test [4]: Antiproliferative activity against Homo sapiens (human) SW707 cells by SRB assay.

Structures are written as SMILES. ≈ marks a conversion by molar mass, not a printed value. Some results are limits rather than exact numbers.

For the molecule `C#CC[Se]c1c(SCc2ccccc2)cnc2ccccc12` [3-BENZYLTHIO-4-PROPARGYLSELENOQUINOLINE], the IC50 in test [1], in test [2], in test [3] and in test [4] was above 100 µg/mL in each case.
Regarding `C#CC[Se]c1c(SC)cnc2ccccc12` [3-METHYLTHIO-4-PROPARGYLSELENOQUINOLINE], the results for the IC50 in test [1], in test [2] and in test [4] were 1.8 µg/mL (≈ 6.16 µM), 2.5 µg/mL (≈ 8.55 µM) and 0.6 µg/mL (≈ 2.05 µM), respectively.
With `C#CCSc1c(SC)cnc2ccccc12` [3-METHYLTHIO-4-PROPARGYLTHIOQUINOLINE], the IC50 in test [1] amounted to 5.7 µg/mL (≈ 23.2 µM); in test [2], 18.4 µg/mL (≈ 75 µM); in test [3], 6.8 µg/mL (≈ 27.7 µM); in test [4], 17.6 µg/mL (≈ 71.7 µM).

(Values after ChEMBL document CHEMBL3046401, “Synthesis, X-ray structure and antiproliferative activity of 3-benzylthio-4-propargylselenoquinoline” (2010).)
